Each block holds one compound with its values, some of them ahead of it. Active and inactive are the calls of the source.
Experiments:
[1] = viability loss in HepG2 liver cells – cell-based, luminescence, dry powder, set 9, cytotoxicity control, dose response (AID 743358); assay type: functional
[2] = biological target: T1, Low molecular weight phosphotyrosine protein phosphatase (Homo sapiens, UniProt P24666); test: inhibition of LMPTP-A enzymatic activity – biochemical, OMFP substrate, fluorescence intensity, set 2, dose response (AID 743307); assay type: functional
T1 sequence (P24666 whole entry): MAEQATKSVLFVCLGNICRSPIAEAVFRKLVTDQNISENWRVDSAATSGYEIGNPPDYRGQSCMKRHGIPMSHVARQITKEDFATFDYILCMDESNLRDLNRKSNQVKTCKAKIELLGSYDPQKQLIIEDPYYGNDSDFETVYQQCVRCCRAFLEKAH

[3] = biological target: T1, Low molecular weight phosphotyrosine protein phosphatase; test: inhibition of human LMPTP enzyme activity – biochemical, absorbance, pNPP substrate, LMPTP-A isoform, set 2, orthogonal assay, dose response (AID 743308); assay type: functional
[4] = CellTiter-Glo luminescence survival assay, SW480 colon tumor line, concentration-response curve, half-maximal inhibitory concentration (AID 1117338); assay type: functional
[5] = RKO cell viability reduction, dose response, CellTiter-Glo luminescence (AID 1117322); assay type: functional
[6] = cytotoxicity toward HCT116 cells – cell-based, CellTiter-Glo luminescence, IC50, dose response (AID 1117332); assay type: functional; details: HCT-116
[7] = SNU-C1 cell viability reduction, dose response, CellTiter-Glo luminescence (AID 1117323); assay type: functional, cell-based
[8] = glucagon-like peptide-1 release potency in STC-1, concentration-response, half-maximal inhibitory concentration in the STC-1 line (AID 1117345); assay type: functional, cell-based
[9] = cytotoxicity toward Colo320 cells – cell-based, CellTiter-Glo luminescence, IC50, dose response (AID 1117334); assay type: functional; details: COLO 320
[10] = cytotoxicity toward HT-29 cells – cell-based, CellTiter-Glo luminescence, IC50, dose response (AID 1117330); assay type: functional
[11] = Reduced DLD-1 viability, concentration-response, CellTiter-Glo luminescence (AID 1117352); assay type: functional
[12] = HCT116 cell viability decrease, GSK3B pretreatment – CellTiter-Glo, IC50, dose response (AID 1117339); assay type: functional; details: HCT-116
[13] = Potency on glucagon-like peptide 1 release, dose-response in NCI-H716 cell line, half maximal inhibitory concentration (AID 1117344); assay type: functional, cell-based
[14] = biological target: Mitogen-activated protein kinase 10 (Homo sapiens, UniProt P53779); test: Dose response biochemical screening assay for inhibitors of c-Jun N-Terminal Kinase 3 (JNK3). [Related pubchem assays: 746 ]
[15] = Trypanosoma cruzi growth suppression in host cells – NIH3T3 host cells, beta-gal luminescence, confirmation (AID 2044); assay type: functional, cell-based;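 also: intracellular parasites grown in NIH/3T3 mouse fibroblasts as host cells; luminescent beta-galactosidase reporter signal from transgenic T. cruzi replicating inside host cells; inhibitors lower the luminescence signal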
[16] = NIH3T3 cell viability loss – ATP luminescence, mouse fibroblasts, counter-screen, dose response (AID 2010); assay type: functional, cell-based;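 also: cells exposed to compound for about 90 hours before reading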
[17] = biological target: SWI/SNF-related matrix-associated actin-dependent regulator of chromatin subfamily A member 2 (Homo sapiens, UniProt P51531); test: Luminescence-based cell-based high throughput dose response assay to identify activators of the function of SWI/SNF related, matrix associated, actin dependent regulator of chromatin, subfamily a, member 2 (SMARCA2, BRM).; assay type: functional
[18] = Counterscreen for activators of the function of SWI/SNF related, matrix associated, actin dependent regulator of chromatin, subfamily a, member 2 (SMARCA2, BRM): Luminescence-based cell-based high throughput dose response assay to identify non-selective compounds using the VP16 reporter assay.; assay type: functional
[19] = biological target: T2, DNA repair protein RAD52 homolog (Homo sapiens, UniProt P43351); assay type: functional, biochemical
T2 sequence (P43351 whole entry): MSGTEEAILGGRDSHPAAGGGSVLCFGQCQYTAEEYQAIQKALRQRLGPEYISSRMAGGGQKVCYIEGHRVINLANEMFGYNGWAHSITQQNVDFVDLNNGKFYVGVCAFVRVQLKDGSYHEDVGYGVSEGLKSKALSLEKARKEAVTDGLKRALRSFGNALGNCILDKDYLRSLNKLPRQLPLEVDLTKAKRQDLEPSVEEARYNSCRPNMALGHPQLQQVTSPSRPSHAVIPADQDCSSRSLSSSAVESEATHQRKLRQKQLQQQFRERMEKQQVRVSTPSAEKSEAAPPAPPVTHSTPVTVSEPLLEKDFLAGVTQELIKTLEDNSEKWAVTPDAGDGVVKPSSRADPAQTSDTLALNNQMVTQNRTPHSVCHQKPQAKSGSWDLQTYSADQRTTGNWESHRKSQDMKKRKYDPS

[20] = viability loss in HepG2 hepatoma cells – cell-based, ATP luminescence, cherry-pick, activator set 2, cytotoxicity control, dose response (AID 1053143); assay type: functional
[21] = IC50 of insulin release inhibition, rat insulinoma INS-1E line, 5 mM glucose, cell-based (AID 1117331); assay type: functional
cells = assay type: functional, cell-based; details: INS-1E
[22] = growth inhibition of yeast DHODH-expressing 3D7 parasites – SYBR Green, dry powder samples, dose response (AID 1159570); assay type: functional, cell-based;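 also: parasite growth measured after 72 hours of compound exposure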
[23] = toxicity to human HepG2 hepatoma cells – cell-based, plate reader, dry powder samples, cytotoxicity control, dose response (AID 1159569); assay type: functional;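 also: inhibitor potency with signal falling toward the positive control level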
[24] = P. falciparum Dd2 growth inhibitors, dose response, SYBR Green, cherry-picked samples (AID 1159567); assay type: functional, cell-based
[25] = Dd2 malaria parasite growth inhibition potency – SYBR Green, dry powder samples, dose response (AID 1159566); assay type: functional, cell-based;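 also: potency for growth inhibition with lower SYBR green DNA signal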
[26] = toxicity to human hepatoma HepG2 cells – cell-based, cherry-picked samples, cytotoxicity control, dose response (AID 1159577); assay type: functional
[27] = growth inhibition of PfATP4-mutant resistant parasites – NITD609-resistant line, SYBR Green, dry powder, dose response (AID 1159571); assay type: functional, cell-based;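 also: parasites synchronized at ring stage by sorbitol before testing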
[28] = HIV-1 Vif–A3G interaction blockers – biochemical, TR-FRET, GST-Vif 1-94, biotin-A3G peptide, dose response retest, primary screen (AID 1117319); assay type: functional;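 also: TR-FRET signal of purified GST-Vif binding a biotinylated A3G peptide; inhibitors lower the FRET signal by blocking Vif and A3G binding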
[29] = viability loss in Vero cells – cytotoxicity control for Vif-APOBEC3G degradation inhibitor project, dose response (AID 1117358); assay type: functional; details: Vero
[30] = biological target: T3, Rac GTPase-activating protein 1 (Homo sapiens, UniProt Q9H0H5); test: blockers of MgcRacGAP-driven Rac1 GTP hydrolysis – biochemical, ADP Hunter fluorescence, primary and confirmatory, confirmation (AID 624330); assay type: functional
T3 sequence (Q9H0H5 whole entry): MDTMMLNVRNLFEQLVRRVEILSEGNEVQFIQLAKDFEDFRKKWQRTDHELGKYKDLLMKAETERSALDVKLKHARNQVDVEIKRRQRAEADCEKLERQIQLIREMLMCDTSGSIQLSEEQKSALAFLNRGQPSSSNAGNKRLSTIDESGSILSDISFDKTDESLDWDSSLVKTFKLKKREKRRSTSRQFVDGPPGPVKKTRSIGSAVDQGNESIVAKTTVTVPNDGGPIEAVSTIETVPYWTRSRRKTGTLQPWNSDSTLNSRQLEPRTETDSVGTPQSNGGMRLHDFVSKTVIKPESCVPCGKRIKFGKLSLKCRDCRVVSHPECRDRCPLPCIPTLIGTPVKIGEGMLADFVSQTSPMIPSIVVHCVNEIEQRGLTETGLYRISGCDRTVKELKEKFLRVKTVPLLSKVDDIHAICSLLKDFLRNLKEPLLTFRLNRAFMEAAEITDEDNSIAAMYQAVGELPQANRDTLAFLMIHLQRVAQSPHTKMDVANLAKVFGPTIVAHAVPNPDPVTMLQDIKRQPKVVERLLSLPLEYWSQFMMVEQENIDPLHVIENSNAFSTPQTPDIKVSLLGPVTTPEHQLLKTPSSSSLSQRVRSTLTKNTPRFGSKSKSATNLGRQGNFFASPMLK

Caspase-6 = biological target: T4, Caspase-6 (Homo sapiens, UniProt P55212); test: inhibition of CASP6 peptide cleavage – biochemical, VEID-R110 fluorescence, cherry-pick, dose response (AID 720632)
T4 sequence (P55212 whole entry): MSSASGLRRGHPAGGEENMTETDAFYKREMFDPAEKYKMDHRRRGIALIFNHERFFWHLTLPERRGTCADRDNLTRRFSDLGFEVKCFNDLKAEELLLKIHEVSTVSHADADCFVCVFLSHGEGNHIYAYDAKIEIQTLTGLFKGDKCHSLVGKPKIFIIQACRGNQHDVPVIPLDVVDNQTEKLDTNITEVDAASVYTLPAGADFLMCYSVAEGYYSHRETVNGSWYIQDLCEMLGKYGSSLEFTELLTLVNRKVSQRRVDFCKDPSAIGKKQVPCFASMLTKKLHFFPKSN

Protein Tat = Protein Tat (Human immunodeficiency virus type 1 group M subtype B (isolate HXB2)(HIV-1), UniProt P04608); assay type: functional;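 also: tat binding to TAR RNA read out by fluorescence polarization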
ELAV-like protein 1 = ELAV-like protein 1 (Homo sapiens, UniProt Q15717); test: Identify HuR specific inhibitors.; assay type: functional
ELAV-like protein 1, sequence (Q15717 whole entry): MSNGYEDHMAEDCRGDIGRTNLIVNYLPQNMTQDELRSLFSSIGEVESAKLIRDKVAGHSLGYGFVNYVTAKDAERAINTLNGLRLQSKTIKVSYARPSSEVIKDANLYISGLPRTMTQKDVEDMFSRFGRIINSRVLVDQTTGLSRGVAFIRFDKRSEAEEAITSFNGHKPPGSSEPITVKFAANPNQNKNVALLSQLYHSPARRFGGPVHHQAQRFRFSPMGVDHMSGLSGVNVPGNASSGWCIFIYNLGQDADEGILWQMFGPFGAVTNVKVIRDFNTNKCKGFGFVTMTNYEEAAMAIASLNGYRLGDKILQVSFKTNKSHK

Protein Tat, sequence (P04608 whole entry): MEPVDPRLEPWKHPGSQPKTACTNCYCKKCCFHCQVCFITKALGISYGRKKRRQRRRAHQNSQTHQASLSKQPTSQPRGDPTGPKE
Mitogen-activated protein kinase 10, sequence (P53779 whole entry): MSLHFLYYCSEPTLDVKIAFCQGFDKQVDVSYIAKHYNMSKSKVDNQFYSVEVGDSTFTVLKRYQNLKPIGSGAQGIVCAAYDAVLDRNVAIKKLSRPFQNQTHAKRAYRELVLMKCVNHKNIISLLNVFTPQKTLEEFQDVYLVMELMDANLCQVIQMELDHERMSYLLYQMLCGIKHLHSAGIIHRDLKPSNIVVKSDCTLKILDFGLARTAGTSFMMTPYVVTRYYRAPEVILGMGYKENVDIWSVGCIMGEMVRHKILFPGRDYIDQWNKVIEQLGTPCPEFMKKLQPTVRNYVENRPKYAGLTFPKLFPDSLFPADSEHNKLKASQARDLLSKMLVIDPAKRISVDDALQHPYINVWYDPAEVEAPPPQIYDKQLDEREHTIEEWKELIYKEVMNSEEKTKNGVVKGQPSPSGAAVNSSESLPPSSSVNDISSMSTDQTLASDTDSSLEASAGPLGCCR
SWI/SNF-related matrix-associated actin-dependent regulator of chromatin subfamily A member 2, sequence (P51531 whole entry): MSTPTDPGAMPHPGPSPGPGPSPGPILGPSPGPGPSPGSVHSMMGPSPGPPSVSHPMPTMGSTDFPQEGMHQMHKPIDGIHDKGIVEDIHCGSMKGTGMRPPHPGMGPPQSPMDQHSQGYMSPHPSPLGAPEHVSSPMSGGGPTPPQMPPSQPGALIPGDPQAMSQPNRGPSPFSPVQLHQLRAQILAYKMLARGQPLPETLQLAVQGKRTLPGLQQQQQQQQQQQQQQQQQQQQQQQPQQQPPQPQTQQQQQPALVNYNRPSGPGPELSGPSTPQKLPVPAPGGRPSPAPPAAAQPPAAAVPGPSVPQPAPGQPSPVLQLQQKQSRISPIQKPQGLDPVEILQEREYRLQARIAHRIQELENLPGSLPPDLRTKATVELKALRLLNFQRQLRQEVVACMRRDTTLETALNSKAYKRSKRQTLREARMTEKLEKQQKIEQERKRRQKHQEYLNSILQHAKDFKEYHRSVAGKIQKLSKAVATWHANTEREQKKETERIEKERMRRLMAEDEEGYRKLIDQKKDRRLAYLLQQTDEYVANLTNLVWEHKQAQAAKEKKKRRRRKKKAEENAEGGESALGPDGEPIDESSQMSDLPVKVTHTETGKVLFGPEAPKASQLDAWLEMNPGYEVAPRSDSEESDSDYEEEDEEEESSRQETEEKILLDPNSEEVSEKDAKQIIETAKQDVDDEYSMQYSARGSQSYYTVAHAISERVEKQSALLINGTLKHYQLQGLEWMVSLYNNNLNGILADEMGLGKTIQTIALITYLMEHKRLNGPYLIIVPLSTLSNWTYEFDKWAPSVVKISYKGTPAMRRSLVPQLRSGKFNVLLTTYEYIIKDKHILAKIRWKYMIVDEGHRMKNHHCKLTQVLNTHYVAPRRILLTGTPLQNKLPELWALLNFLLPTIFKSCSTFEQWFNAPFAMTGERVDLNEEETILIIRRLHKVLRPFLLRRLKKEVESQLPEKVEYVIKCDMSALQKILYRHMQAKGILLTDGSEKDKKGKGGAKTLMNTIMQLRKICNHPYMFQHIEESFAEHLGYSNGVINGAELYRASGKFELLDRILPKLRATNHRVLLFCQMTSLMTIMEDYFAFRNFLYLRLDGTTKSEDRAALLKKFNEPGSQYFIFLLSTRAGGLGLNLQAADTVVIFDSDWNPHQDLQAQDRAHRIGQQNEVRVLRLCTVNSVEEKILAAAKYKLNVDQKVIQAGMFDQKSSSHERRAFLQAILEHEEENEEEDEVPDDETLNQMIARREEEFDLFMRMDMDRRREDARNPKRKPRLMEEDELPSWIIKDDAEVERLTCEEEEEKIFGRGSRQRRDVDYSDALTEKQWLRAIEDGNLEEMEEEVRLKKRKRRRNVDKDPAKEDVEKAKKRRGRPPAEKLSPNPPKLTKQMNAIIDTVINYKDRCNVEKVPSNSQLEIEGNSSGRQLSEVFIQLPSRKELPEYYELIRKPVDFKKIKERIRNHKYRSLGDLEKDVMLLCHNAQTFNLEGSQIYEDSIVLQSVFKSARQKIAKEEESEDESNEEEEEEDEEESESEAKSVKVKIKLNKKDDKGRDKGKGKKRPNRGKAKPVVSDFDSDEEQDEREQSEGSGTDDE

SMILES: COc1cccc(NC(=O)N2CC[C@@H]3[C@@H](CO)N(C)c4ccc(-c5cccc(F)c5)cc4[C@@H]32)c1
- AC50 [1]: > 52 µM (inactive)

SMILES: CCCCC(CC)COC(=O)CC(C(=O)OCC(CC)CCCC)S(=O)(=O)O (configuration not stated) [DOCUSATE]
- IC50 [4]: > 20 µM (inactive)
- IC50 [5]: > 20 µM (inactive)
- IC50 [6]: > 20 µM (inactive)
- IC50 [7]: > 20 µM (inactive)
- IC50 [8]: > 40 µM (inactive)
- IC50 [9]: > 20 µM (inactive)
- IC50 [10]: > 20 µM (inactive)
- IC50 [11]: > 20 µM (inactive)
- IC50 [12]: 16.6 µM (inactive)
- IC50 [13]: 22.9 µM (inactive)

SMILES: Nc1c2ccccc2nc2ccccc12
- EC50 [15]: 1.16 µM (active)
- EC50 [16]: 10.6 µM (active)
- EC50 [17]: > 3.37 µM (active)
- EC50 [18]: > 91.1 µM (inactive)
- AC50 [19]: 2.48 µM (active)
- AC50 [20]: 6.26 µM (active)
- IC50 [4]: > 20 µM (inactive)
- IC50 [21]: 18.5 µM (inactive)
- IC50 [5]: > 6.67 µM (inactive)
- IC50 [6]: 2.02 µM (active)
- IC50 [7]: > 6.67 µM (inactive)
- IC50 (cells): > 33.3 µM (inactive)
- IC50 [9]: 8.81 µM (inactive)
- IC50 [10]: > 20 µM (inactive)
- IC50 [11]: > 20 µM (inactive)
- IC50 [12]: 3.87 µM (active)

SMILES: Cc1ccc(-c2ccc([C@@H]3[C@H](CO)N4CCCCN(S(=O)(=O)c5cccc(C)c5)C[C@@H]34)cc2)cc1
- AC50 [22]: 1.15 µM (active)
- AC50 [23]: 16.4 µM (active)
- AC50 [24]: 1.49 µM (active)
- AC50 [25]: 0.955 µM (active)
- AC50 [26]: > 39 µM (inactive)
- AC50 [27]: 0.87 µM (active)

Continued, in another order:

- IC50 [2]: 5.46 µM (active)
- IC50 [3]: 11.9 µM (active)
SMILES: c1ccc(-c2cc(NCCN3CCCC3)c3ccccc3n2)cc1

- IC50 [14]: 6.69 µM (active)
SMILES: O=C1C(c2ccncc2)=C(O)c2ccccc21

- IC50 [28]: > 100 µM (active)
SMILES: CCOC(=O)c1c(NC(=O)C(C)N2CCN(C(=O)c3ccco3)CC2)sc2c1CCCC2 (configuration not stated)
- CC50 [29]: 21.6 µM (active)

- IC50 [30]: 40.2 µM (active)
- AC50 (Caspase-6): 13.7 µM (active)
- IC50 (Protein Tat): 49.3 µM (inconclusive)
- IC50 (ELAV-like protein 1): 41 µM (active)
SMILES: Cc1ccc(Nc2ccc(N)cc2S(=O)(=O)O)cc1
